Experimental data as given in publication PMC11510591, “In Vitro Evaluation of Pharmacokinetic Properties of Selected Dual COX-2 and 5-LOX Inhibitors” (Pharmaceuticals, 2024).
≈ marks a conversion by molar mass, not a printed value. Where “and” joins values, the source holds several entries; their conditions need not be identical. Equal entries are not always repeated.

Legend:
[1] = PAMPA test (hexadecane membrane), passive gastrointestinal absorption; type: in vitro ADME; settings: for Papp at 5 h, 0.05 mM / –logPe: donor pH 5.5, acceptor pH 7.4, 5 h, room temperature; for Papp at 5 h, 0.05 mM: read-out: Pe (effective passive permeability coefficient)
Procedure: The PAMPA test uses a 96-well plate coated with an impregnated filter material, forming an artificial membrane that separates donor and acceptor compartments. Egg lecithin in dodecane is commonly used to simulate membrane lipids, while hexadecane is effective for mimicking gastrointestinal membranes. […] Therefore, hexadecane dissolved in hexane was chosen in this study.
The phosphate buffer solution was prepared by dissolving 0.5292 g of NaH2PO4 × H2O and 0.0234 g of Na2HPO4 in purified water (200 mL). The phosphate buffer was divided into two portions, and the pH was adjusted to pH 5.5 and pH 7.4 using o-phosphoric acid. The donor solutions were prepared by diluting the stock solutions (5 mM DMSO solutions) with the buffer pH 5.5 to obtain the final concentration of 0.05 mM (the DMSO concentration in the donor solutions was 1%), while the acceptor solution was prepared as a 1% DMSO solution in the buffer pH 7.4. The use of DMSO as a cosolvent in PAMPA is necessary in cases of low-soluble compounds. It is usually used in concentrations up to 5% [25, 55, 56, 57].
The PAMPA test was performed according to the literature procedure using a 96-well microtiter polycarbonate filter plate (Merck Millipore, Carrigtwohill, Ireland) that was impregnated with 15 µL of a hexadecane/hexane (5:95, v/v) solution [52]. Donor solutions (300 µL per well) were transferred into each well of the donor plate. Acceptor solution was transferred into each well (300 µL per well) of the acceptor plate (MSSACCEPTOR, Millipore, Burlington, MA, USA) and covered by the donor plate to create a PAMPA sandwich. The system was incubated at room temperature for 5 h at a vibratory mixer. After incubation, the PAMPA sandwich was dissociated, and concentrations of all tested compounds in each well, as well as in the starting solutions, were determined using the HPLC method (Section 3.3.1).
The concentrations of tested compounds in the starting solutions, as well as in the donor and acceptor sections after incubation, were determined by the HPLC method on the Dionex Ultimate 3000 (Thermo Fisher Scientific, Waltham, MA, USA) equipped with a quaternary pump, autosampler, and DAD detector using a ZORBAX Eclipse XDB-C18 4.6 × 150 mm, 5 µm column (Agilent Technologies, Santa Clara, CA, USA).
R represents the retention, which is defined as the fraction of the tested compound retained in the PAMPA membrane (filters and plate materials), CD(t) is the concentration of a tested compound in a donor compartment after incubation time t, CA(t) is the concentration of a tested compound in an acceptor compartment after incubation time t, while CD(0) represents the concentration of a tested compound in a donor compartment at the beginning of the incubation (starting solution).

Solubility in water = type: physicochemical; settings: distilled water, thermodynamic from solid, room temperature
Procedure: As discussed in the previous section, all tested compounds are dominantly unionized in the whole range of physiologically important pH values (2 < pH ≤ 7.4). Therefore, water was used for the determination of solubility. […] According to USP34, all tested compounds can be defined as practically insoluble since their solubilities are ≤100 mg/L [54].
Solubility of tested compounds was investigated at room temperature. Compounds were weighed on a scale (5 mg each) and transferred to flasks. In a stepwise procedure, increasing volumes of distilled water were added, and after each addition of an amount of water, the mixture was placed on an ultrasound bath for 5 min and visually inspected for undissolved parts of the sample. When no […] could be observed, the mixture was transferred into a glass cylinder, and opalescence was compared with water. If the mixture was not more opalescent than the solvent, the solvation was considered to be achieved. Solubility of a compound is defined according to the amount of solvent required to dissolve 1 mg.

zebrafish embryos = test system: zebrafish embryos; set-up: method as in PMID 38931946; settings: at therapeutic doses; cited from earlier work
[2] = biological target: T1, human serum albumin (HSA) (Homo sapiens, UniProt P02768); type: binding; settings: CHIRALPAK HSA column, ammonium acetate buffer pH 7.0/acetonitrile 85:15, 25 °C
T1 construct: purchased Sigma-Aldrich
Procedure: Recently, interactions of many newly synthesized structurally diverse compounds with HSA were successfully studied using this technique. The degree of binding of the tested compounds to HSA was evaluated based on their retention behavior on the stationary phase modified with HSA. The logarithmic values of retention factors (logk) were used to evaluate indirectly and compare the drug–HSA interaction.
HPAC analysis was performed on an Agilent 1200 Series chromatograph (Agilent Technologies, Santa Clara, CA, USA). […] The mobile phase consisted of ammonium acetate buffer (pH 7.0; 0.01 M) and acetonitrile (85:15, v/v). The flow rate was 0.6 mL/min, the temperature was set to 25 °C, and the detection of tested compounds was carried out at 283 nm. Tested compounds were dissolved in DMSO (at a concentration of 1 mg/mL), further diluted with the mobile phase to a final concentration of 0.05 mg/mL, and analyzed in triplicate. The HPAC conditions were selected not only with the aim of achieving satisfactory retention characteristics of all synthesized compounds but also taking into account recommendations of a column manufacturer. Retention factors were calculated using Equation (1), where t0 (column dead time) was the retention time of DMSO at 220 nm.

T1 sequence (P02768 25-609): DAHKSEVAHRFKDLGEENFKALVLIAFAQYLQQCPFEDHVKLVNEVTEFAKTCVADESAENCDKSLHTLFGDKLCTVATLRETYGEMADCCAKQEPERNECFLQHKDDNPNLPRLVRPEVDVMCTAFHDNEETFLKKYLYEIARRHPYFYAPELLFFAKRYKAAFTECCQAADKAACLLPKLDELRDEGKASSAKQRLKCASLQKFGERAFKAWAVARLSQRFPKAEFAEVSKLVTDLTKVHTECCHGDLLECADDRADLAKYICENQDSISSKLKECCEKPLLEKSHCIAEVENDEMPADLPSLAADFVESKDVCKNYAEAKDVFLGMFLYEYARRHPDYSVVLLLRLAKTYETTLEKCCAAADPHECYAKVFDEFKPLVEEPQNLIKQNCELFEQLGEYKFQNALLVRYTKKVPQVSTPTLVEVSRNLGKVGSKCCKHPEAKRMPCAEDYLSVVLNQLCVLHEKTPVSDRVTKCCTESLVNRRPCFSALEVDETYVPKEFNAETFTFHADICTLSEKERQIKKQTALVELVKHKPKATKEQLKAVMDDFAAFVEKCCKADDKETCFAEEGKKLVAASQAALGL

SMILES | Papp at 5 h, 0.05 mM ([1]; PAMPA) | solubility at 5 min (Solubility in water) | –logPe [1] | Membrane retention (R) ([1]; PAMPA) | Retention Factors (logk) [2] | toxic effects on zebrafish embryos (zebrafish embryos)
COc1ccc2c(c1)c(CNC(=O)NO)c(C)n2C(=O)c1ccc(Cl)cc1 [Compound 1] | 429 nm/s | 0.0015 mg/mL (≈ 3.87 µM) |  |  |  | 
CC(NC(=O)NO)c1ccc(-c2ccccc2)c(F)c1 (stereo not shown) [Compound 2] | 176 nm/s | 0.0143 mg/mL (≈ 52.1 µM) |  |  |  | 
O=C(NO)NCc1ccccc1Nc1c(Cl)cccc1Cl [Compound 3] | 773 nm/s | 0.00545 mg/mL (≈ 16.7 µM) | 4.11 ± 0.02 |  |  | did not show toxic effects

Continued, in another order:

Papp at 5 h, 0.05 mM ([1]; PAMPA) | solubility at 5 min (Solubility in water) | –logPe [1] | Membrane retention (R) ([1]; PAMPA) | Retention Factors (logk) [2] | SMILES | toxic effects on zebrafish embryos (zebrafish embryos)
1460 nm/s | 0.0194 mg/mL (≈ 82.2 µM) | 3.84 ± 0.05 | 24% |  | CC(=O)N(O)C(C)c1ccc(CC(C)C)cc1 (stereo not shown) [Compound 11] | 
1570 nm/s | 0.0118 mg/mL (≈ 45.4 µM) | 3.81 and 3.81 ± 0.04 |  | 2.03 ± 0.02 | COc1ccc2cc(C(C)N(O)C(C)=O)ccc2c1 (stereo not shown) [Compound 12] | 
